# Laboratory results taken from patent US20230338397A1, “COMPOSITION COMPRISING CANNABINOIDS, AND/OR TERPENS, AND METHODS OF USING SAME” (priority 2020, published 2023).
# “Also recorded” adds a separate entry of the source.
# Key:
# [1] = test system: enzymatically-dissociated human NP; experiment: NP organ culture: cell death by PI and flow cytometry after enzymatic digestion; settings: for cell death of incubated nasal polyp cells: 72 h, FIG. 10
# [2] = test system: dispersed nasal polyp cells; experiment: Cell death of dispersed NP cells (PI, flow cytometry), 2 h; assay type: cell-based, human; settings: 10 μM, 2 h incubation, FIG. 12
# Procedure: DNPCs are prepared from nasal polyps by means of enzymatic digestion. Nasal Polyps are incubated for 2 hours at 37° C. in RPMI 1640 (1 g of tissue per 4 mL) containing 2.0 mg/mL protease, 1.5 mg/mL collagenase, 0.75 mg/mL hyaluronidase, and 0.05 mg/mL DNase. The cell suspension is then filtered through a […] cell strainer to remove any undigested tissue and washed 2 times with washing medium (RPMI 1640 supplemented with 2% FCS, 2 mmol/L glutamine, 100 U/mL penicillin, and […] streptomycin). The cell pellet is resuspended in erythrocyte lysis buffer and washed with washing medium. After washing, DNPCs are suspended in culture medium (RPMI 1640 supplemented with 10% Foetal Calf Serum (FCS), 2 mmol/L glutamine, 100 U/mL penicillin, and […] streptomycin).
# The effect of the treatment is evaluated by cell death parameters, using […] (PI) and flow cytometry (FACS) analysis, and enzymatic-linked immunoassay (ELISA).
# human NP tissue = experiment: NP organ culture: tissue weight reduction ex-vivo; settings: for NP tissue weight reduction: 150 μM
# human Jurkat T cell line = experiment: T cell death in Jurkat cells (PI, flow cytometry); settings: 2 h, FIG. 11; for T cell death compared to vehicle: CBD 1-20 μM, CBG 5-20 μM
# GM-CSF = GM-CSF level in SEB-stimulated dispersed nasal polyp cells; assay type: cell-based, human; settings: CBD 2.5 μM, 5 μM, 10 μM, 30 min before SEB, FIG. 8
# [3] = test system: human nasal polyp (NP) whole tissues; experiment: NP organ culture: detachment of cells/tissue pieces from nasal polyp (micrographs)
smiles,measurement,setting,value
"CCCCCc1cc(O)c2c(c1)OC(C)(C)[C@@H]1CCC(C)=C[C@@H]21 [THC, tetrahydrocannabinol]",viability of nasal polyp cells (cell death),"[1]; THC 10 μM and 100 μM, 24 h, FIG. 9","comparable effect as CBD at 15 μM and 150 μM, respectively"
same,% cell death,"[1]; THC 100 μM, FIG. 9",comparable effect to CBD at a concentration of 150 μM
same,cell death of incubated nasal polyp cells,[1]; THC alone 10 μM,negligible
"CCCCCc1cc(O)c(C/C=C(\C)CCC=C(C)C)c(O)c1 [CBG, cannabigerol]",cell death % of dispersed NP cells,[2],significant increase in cell death %; also recorded: significant increase in cell death
same,size of nasal polyps,"human NP tissue; CBG 150 μM, 24 h, FIG. 13A",size of nasal polyps is reduced
same,T cell death compared to vehicle,human Jurkat T cell line,significant cell death compared to control
same,cell death of NP cells,"[1]; CBG 150 μM, FIG. 13C-13D",substantial cell death
"C=C(C)[C@@H]1CCC(C)=C[C@H]1c1c(O)cc(CCC)cc1O [CBDV, cannabidivarin]",T cell death,human Jurkat T cell line; CBDV 20 μM,induce cell death
"C=C(C)[C@@H]1CCC(C)=C[C@H]1c1c(O)cc(CCCCC)cc1O [CBD, cannabidiol]",cell death % of dispersed NP cells,[2],significant increase in cell death %; also recorded: significant increase in cell death
same,GM-CSF level,GM-CSF,significantly decrease; also recorded: significantly reduces or inhibits
same,NP tissue weight reduction,"human NP tissue; 3 h incubation, FIG. 4",significant tissue weight reduction; also recorded: significant nasal polyp weight reduction
same,NP tissue weight reduction,"human NP tissue; CBD 15 μM, 1.5 mM, 24 h incubation, FIG. 5",significant human NP tissue weight reduction; also recorded: significant dose-dependent nasal polyp weight reduction
same,T cell death compared to vehicle,human Jurkat T cell line,significant cell death compared to control
same,percent of dead cells,"[1]; CBD 15 μM, 150 μM, 1.5 mM, 24 h, PI-positive, FIG. 7",significantly increased the percent of dead cells
same,cell death of incubated nasal polyp cells,[1]; CBD alone 150 μM,substantial cell death
same,detachment of cells/tissue pieces from the main NP,"[3]; CBD 150 μM, 3 h incubation, FIG. 1",starting to detach from the main NP whole tissue; also recorded: starting to detach and disaggregate from the main polyp
same,cells/tissue pieces breaking off the main polyp,"[3]; CBD 150 μM, 72 h incubation, FIG. 3",cells/tissue pieces are breaking off the main polyp into the medium
same,detachment of cells/tissues from the main NP,"[3]; CBD 600 μM, 24 h incubation, FIG. 2",significant detachment of cells/tissues; also recorded: significant detachment of nasal polyp cells/pieces
